Test results reported in patent US9730944B2, “Antiviral activity of novel bicyclic heterocycles” (priority 2010, dated 2017).
In brackets after ≈: the same amount, converted by molar mass. Read-outs that look alike come from different tables or passages of the source.

Key:
HIV-2 strain (ROD) = assay: Inhibition of replication of HIV-2 (ROD strain) in MT-4 cells, MTT assay; type: cell-based; details: Human immunodeficiency virus 2, MT4, 120 h, read-out: EC50 (μM) HIV-2 (ROD)
poliovirus (PV type 3) = assay: microbe, parasite or virus in culture; type: cell-based; details: Enterovirus C, read-out: PV-3 EC50
in vitro [1] = details: human, PV CC50
in vitro [2] = details: African green monkey, PV CC50
HIV-1 strain IIIB = assay: Inhibition of replication of HIV-1 (IIIB strain) in MT-4 cells, MTT assay; type: cell-based; details: Human immunodeficiency virus 1, IIIB, MT4, 120 h, read-out: EC50 (μM) HIV-1 (IIIB)
in vitro [3] = details: human
poliovirus (PV type 1) = assay: microbe, parasite or virus in culture; type: cell-based; details: Enterovirus C, read-out: PV-1 EC50
poliovirus (PV type 2) = assay: microbe, parasite or virus in culture; type: cell-based; details: Enterovirus C, read-out: PV-2 EC50
[4] = MT-4 cells, MTT assay, five days after infection, 50% protection from cytopathic effect

Work on O=C(COc1ccc(Cl)cc1)N1CCN(c2nc(-c3ccccc3)nc3sc(-c4ccc(F)cc4)cc23)CC1 [Example 352, 2-(4-chlorophenoxy)-1-(4-(6-(4-fluorophenyl)-2-phenylthieno[2,3-d]pyrimidin-4-yl)piperazin-1-yl)ethanone] yielded an EC50 (HIV-2 strain (ROD); [4]) greater than 224 µM, an EC50 (poliovirus (PV type 3); HeLa) greater than 50 µg/mL and an EC50 (poliovirus (PV type 3); Vero) greater than 50 µg/mL. The CC50 (in vitro [1]) was greater than 50 µg/mL, the CC50 (in vitro [2]) was greater than 150 µg/mL and the EC50 (HIV-1 strain IIIB; [4]) was greater than 224 µM. For the same compound, the CC50 (in vitro [3]) was greater than 224 µM, the EC50 (poliovirus (PV type 1); HeLa) was greater than 50 µg/mL and the EC50 (poliovirus (PV type 1); Vero) was greater than 50 µg/mL. The EC50 (poliovirus (PV type 2); HeLa) was no less than 50 µg/mL and the EC50 (poliovirus (PV type 2); Vero) was greater than 50 µg/mL.

Work on O=C(O)c1nc(N2CCN(C(=O)COc3ccc(Cl)cc3)CC2)c2cc(-c3ccc(F)cc3)sc2n1 [Example 357, 4-(4-(2-(4-chlorophenoxy)acetyl)piperazin-1-yl)-6-(4-fluorophenyl)thieno[2,3-d]pyrimidine-2-carboxylic acid] yielded an EC50 (HIV-2 strain (ROD); [4]) greater than 237 µM, an EC50 (poliovirus (PV type 3); HeLa) greater than 50 µg/mL and an EC50 (poliovirus (PV type 3); Vero) greater than 50 µg/mL. It also gave a CC50 (in vitro [1]) greater than 50 µg/mL, a CC50 (in vitro [2]) of 61.4 µg/mL (≈ 117 µM) and an EC50 (HIV-1 strain IIIB; [4]) of 157 µM. The CC50 (in vitro [3]) was greater than 237 µM, the EC50 (poliovirus (PV type 1); HeLa) was greater than 50 µg/mL and the EC50 (poliovirus (PV type 1); Vero) was greater than 50 µg/mL. It also gave an EC50 (poliovirus (PV type 2); HeLa) of no less than 50 µg/mL and an EC50 (poliovirus (PV type 2); Vero) greater than 50 µg/mL.

Compound Nc1nc(N2CCN(C(=O)COc3ccc(Cl)cc3)CC2)c2nc(C3CC3)oc2n1 [Example 185, 5-amino-2-cyclopropyl-7-[4-(4-chlorophenoxyacetyl)piperazin-1-yl]-oxazolo[5,4-d]pyrimidine] has an EC50 (poliovirus (PV type 3); HeLa) greater than 50 µg/mL, an EC50 (poliovirus (PV type 3); Vero) greater than 50 µg/mL and a CC50 (in vitro [1]) greater than 50 µg/mL. For the same compound, the CC50 (in vitro [2]) was 97.7 µg/mL (≈ 228 µM), the EC50 (poliovirus (PV type 1); HeLa) was 0.4 µg/mL (≈ 0.933 µM) and the EC50 (poliovirus (PV type 1); Vero) was 2.17 µg/mL (≈ 5.06 µM). The EC50 (poliovirus (PV type 2); HeLa) was no less than 50 µg/mL and the EC50 (poliovirus (PV type 2); Vero) was 5.48 µg/mL (≈ 12.8 µM).

Compound COCCNC(=O)c1nc(N2CCN(C(=O)COc3ccc(Cl)cc3)CC2)c2cc(-c3ccc(F)cc3)sc2n1 [Example 356, 4-(4-(2-(4-chlorophenoxy)acetyl)piperazin-1-yl)-6-(4-fluorophenyl)-N-(2-methoxyethyl)thieno[2,3-d]pyrimidine-2-carboxamide] has an EC50 (HIV-2 strain (ROD); [4]) greater than 155 µM, an EC50 (poliovirus (PV type 3); HeLa) greater than 50 µg/mL and an EC50 (poliovirus (PV type 3); Vero) greater than 50 µg/mL. The CC50 (in vitro [1]) was greater than 50 µg/mL, the CC50 (in vitro [2]) was 108 µg/mL (≈ 185 µM) and the EC50 (HIV-1 strain IIIB; [4]) was greater than 155 µM. It also gave a CC50 (in vitro [3]) greater than 155 µM, an EC50 (poliovirus (PV type 1); HeLa) greater than 50 µg/mL and an EC50 (poliovirus (PV type 1); Vero) greater than 50 µg/mL. The EC50 (poliovirus (PV type 2); HeLa) was no less than 50 µg/mL and the EC50 (poliovirus (PV type 2); Vero) was no less than 50 µg/mL.

CC(=O)N1CCN(c2nc(N)nc3oc(-c4ccc(F)cc4)nc23)CC1 [Example 191, 5-amino-2-(4-fluorophenyl)-7-(4-acetylpiperazin-1-yl)-oxazolo[5,4-d]pyrimidine] showed an EC50 (poliovirus (PV type 3); HeLa) greater than 50 µg/mL, an EC50 (poliovirus (PV type 3); Vero) greater than 50 µg/mL and a CC50 (in vitro [1]) greater than 50 µg/mL. For the same compound, the CC50 (in vitro [2]) was 112 µg/mL (≈ 313 µM), the EC50 (poliovirus (PV type 1); HeLa) was 28.6 µg/mL (≈ 80.3 µM) and the EC50 (poliovirus (PV type 1); Vero) was 27.5 µg/mL (≈ 77.1 µM). The EC50 (poliovirus (PV type 2); HeLa) was no less than 50 µg/mL and the EC50 (poliovirus (PV type 2); Vero) was 21.6 µg/mL (≈ 60.6 µM).

Cc1cccc(OCC(=O)N2CCN(c3nc(N)nc4sc(CCc5ccc(F)cc5)nc34)CC2)c1 [Example 53, 1-(4-(5-amino-2-(4-fluorophenethyl)thiazolo[5,4-d]pyrimidin-7-yl)piperazin-1-yl)-2-(m-tolyloxy)ethanone] showed an EC50 (HIV-2 strain (ROD); [4]) greater than 7.96 µM, an EC50 (poliovirus (PV type 3); HeLa) greater than 16.7 µg/mL and an EC50 (poliovirus (PV type 3); Vero) of 1.4 µg/mL (≈ 2.76 µM). For the same compound, the CC50 (in vitro [1]) was greater than 50 µg/mL, the CC50 (in vitro [2]) was greater than 150 µg/mL and the EC50 (HIV-1 strain IIIB; [4]) was greater than 7.96 µM. The CC50 (in vitro [3]) was 201 µM, the EC50 (poliovirus (PV type 1); HeLa) was 0.41 µg/mL (≈ 0.809 µM) and the EC50 (poliovirus (PV type 1); Vero) was 0.12 µg/mL (≈ 0.237 µM). For the same compound, the EC50 (poliovirus (PV type 2); HeLa) was 9.73 µg/mL (≈ 19.2 µM) and the EC50 (poliovirus (PV type 2); Vero) was 0.14 µg/mL (≈ 0.276 µM).

In the case of CCCCc1nc(N2CCN(C(=O)COc3ccc(Cl)cc3)CC2)c2cc(-c3ccc(F)cc3)sc2n1 [Example 313, 1-(4-(2-butyl-6-(4-fluorophenyl)thieno[2,3-d]pyrimidin-4-yl)piperazin-1-yl)-2-(4-chlorophenoxy)ethanone], the EC50 (poliovirus (PV type 3); HeLa) is reported as greater than 50 µg/mL, the EC50 (poliovirus (PV type 3); Vero) is reported as greater than 50 µg/mL and the CC50 (in vitro [1]) is reported as greater than 50 µg/mL. It also gave a CC50 (in vitro [2]) greater than 150 µg/mL, an EC50 (poliovirus (PV type 1); HeLa) greater than 50 µg/mL and an EC50 (poliovirus (PV type 1); Vero) greater than 50 µg/mL. For the same compound, the EC50 (poliovirus (PV type 2); HeLa) was no less than 50 µg/mL and the EC50 (poliovirus (PV type 2); Vero) was no less than 50 µg/mL.

Nc1nc(N2CCN(C(=O)COc3ccc(Cl)cc3)CC2)c2nc(CCOc3ccc(F)cc3)sc2n1 [Example 48, 1-(4-(5-amino-2-(2-(4-fluorophenoxy)ethyl)thiazolo[5,4-d]pyrimidin-7-yl)piperazin-1-yl)-2-(4-chlorophenoxy)ethanone] gave an EC50 (HIV-2 strain (ROD); [4]) of 5.12 µM, an EC50 (poliovirus (PV type 3); HeLa) of 0.97 µg/mL (≈ 1.79 µM) and an EC50 (poliovirus (PV type 3); Vero) of 0.36 µg/mL (≈ 0.663 µM). It also gave a CC50 (in vitro [1]) of 49.4 µg/mL (≈ 91 µM), a CC50 (in vitro [2]) greater than 150 µg/mL and an EC50 (HIV-1 strain IIIB; [4]) of 0.63 µM. It also gave a CC50 (in vitro [3]) of 11.7 µM, an EC50 (poliovirus (PV type 1); HeLa) of 0.35 µg/mL (≈ 0.645 µM) and an EC50 (poliovirus (PV type 1); Vero) of 0.11 µg/mL (≈ 0.203 µM). For the same compound, the EC50 (poliovirus (PV type 2); HeLa) was 0.36 µg/mL (≈ 0.663 µM) and the EC50 (poliovirus (PV type 2); Vero) was 0.082 µg/mL (≈ 0.151 µM).

Work on Nc1nc(N2CCN(C(=O)COc3ccc(Cl)cc3)CC2)c2nc(CCc3ccc(F)cc3)oc2n1 [Example 172, 1-(4-(5-amino-2-(4-fluorophenethyl)oxazolo[5,4-d]pyrimidin-7-yl)piperazin-1-yl)-2-(4-chlorophenoxy)ethanone] yielded an EC50 (HIV-2 strain (ROD)) of no less than 32 µM, an EC50 (poliovirus (PV type 3); HeLa) greater than 50 µg/mL and an EC50 (poliovirus (PV type 3); Vero) of 4.36 µg/mL (≈ 8.53 µM). For the same compound, the CC50 (in vitro [1]) was greater than 50 µg/mL, the CC50 (in vitro [2]) was 76.2 µg/mL (≈ 149 µM) and the EC50 (HIV-1 strain IIIB) was 1.82 µM. The CC50 (in vitro [3]) was 32 µM, the EC50 (poliovirus (PV type 1); HeLa) was 32 µg/mL (≈ 62.6 µM) and the EC50 (poliovirus (PV type 1); Vero) was 1.16 µg/mL (≈ 2.27 µM). For the same compound, the EC50 (poliovirus (PV type 2); HeLa) was 15.6 µg/mL (≈ 30.6 µM) and the EC50 (poliovirus (PV type 2); Vero) was 1.11 µg/mL (≈ 2.17 µM).
